Experimental data: article PMC5809559, “DYRK1A inhibition and cognitive rescue in a Down syndrome mouse model are induced by new fluoro-DANDY derivatives” (Scientific Reports, 2018)

How the values were obtained:
[1] = biological target: T1, DYRK1A catalytic domain (DYRK1A-ΔC) (Rattus norvegicus, UniProt Q63470); test: In vitro DYRK1A kinase inhibition, UFLC assay with fluorescent peptide substrate; type: biochemical; conditions: IC50, in vitro inhibition of DYRK1A, 3,5-diaryl-7-azaindoles 5a-5g, Fig. 5
T1 construct: The cDNA coding for the catalytic domain (residues 1-502) of rat DYRK1A; 6xHis; made in house; host or cells: E. coli BL21(DE3), pET28

[2] = Bioavailability in plasma after i.p. injection (UHPLC-MS/MS); type: in vivo; conditions: mouse, ip, WT mice, 20 mg/kg i.p.
Experimental: Before undertaking behavioral studies in Ts65Dn mice, the bioavailability of F-DANDY 5a in plasma after peripheral (intraperitoneal – i.p.) injection in mice was determined. […] The sample preparation and analytical protocol were adapted from Bonneau et al.[38],[39]. […] A 30 min interval was thus selected between time of injection and behavioral assessment.
All plasma and brain homogenate extracts were analyzed by an ultra-high performance liquid chromatography (UHPLC) system coupled to a triple-quadrupole mass spectrometer (Dionex Ultimate 3000 RSLC system coupled to a TSQ Vantage EMR, Thermo Scientific, Les Ulis, France). UHPLC separation was performed using a C18 column (HSS T3, 2.1 mm × 150 mm, 1.7 μm, Waters, Guyancourt, France) equipped with a guard column (HSS T3, 2.1 mm × 5 mm, 1.7 μm, Waters, Guyancourt, France) and maintained at 40 °C. The mobile phases were water, 0.1% formic acid (A) and acetonitrile (B). […] A washing step in acetonitrile/isopropanol was added to limit carryover problems. Injection volume was 4 µL and the autosampler was maintained at 6 °C. Ionization was performed with a heated electrospray ionization source in positive mode. The source parameters were set as follows: spray voltage 3350 V, vaporizer temperature 250 °C, sheath gas (N2) pressure 55 psi, auxiliary gas pressure (N2) 25 psi, capillary temperature 350 °C. Analysis was performed under the Selected Reaction Monitoring (SRM) mode using several transitions for each compound at optimized collision energies (see Table SI2 and Figure SI1). […] Data acquisition was performed using ThermoScientific Xcalibur 2.1 software system. All samples were analyzed in triplicate.
Two compounds, V[34] […] Limit of quantification (LOQ) was determined as the lowest point of the calibration curve at 1.6 pg/μL. […] Limit of quantification (LOQ) was determined as the lowest point of the calibration curve at 1.6 pg/mg. […]
Using an optimized Ultra Performance Liquid Chromatography with tandem mass spectrometry (UPLC-MS/MS), compound 5a was subsequently quantified in plasma. […] All samples were analyzed in triplicate.

Question: With `Oc1ccc(-c2cnc3[nH]cc(-c4ccc(F)cc4)c3c2)cc1O` [Compound 5a, 3-(4-fluorophenyl)-5-(3,4-dihydroxyphenyl)-1H-pyrrolo[2,3-b]pyridine] as the molecule, how does the IC50 [1] read?
Answer: 20.7 nM

Question: And the concentration at 2.5 h ([2]; after slow decrease over 2.5 hours, read-out: plasma level)?
Answer: ~50 ng/mL

Question: What about the concentration at 4.4 min ([2]; t = 4.4 min) of the same molecule?
Answer: 312 ng/mL

Question: And the concentration at 5.4 min ([2]; t = 5.4 min)?
Answer: 236 ng/mL
